What was measured:
[1] = test system: spontaneous diabetic Torii (SDT) rats; experiment: Inhibition of diabetic retinopathy in type II diabetic animal model; format: in vivo, rat; settings: oral once a day 16 weeks, metformin 350 mg/kg
Method: (§1) To investigate the effect of the extract of Homonoia riparia Lour. on the prevention and treatment of diabetic complications in spontaneous diabetic Torii (SDT) rats, the type II diabetic animal model, the extract of Homonoia riparia Lour. was orally administered to the animal for 16 weeks. 10-week old male SDT rats (CLEA Japan Inc., Tokyo, Japan) were adapted for 1 week, and then continued to raise for 15 weeks until the blood sugar level reached 300 mg/dl. Feed and water were provided freely. 15 weeks later, the rats were grouped into 5 group (8 rats per group), to which the extract of Homonoia riparia Lour. (HR) and the control drug MET were administered orally once a day. The experimental groups included the normal group (NOR), the diabetic group (DM), the metformin (350 mg/kg) treated diabetic group (MET), the Homonoia riparia Lour. extract (100 mg/kg) treated diabetic group (HR-100), and the Homonoia riparia Lour. extract (250 mg/kg) treated diabetic group (HR-250). Each group was administered with the test samples orally once a day for 16 weeks. Urine was picked up 24 hours before autopsy. The organs extracted by autopsy were stored at −80° C.
When hyperglycemic state continues, retinal vessels in eyeball become mal-functioning to cause blood-retinal barrier breakage. […]

[2] = test system: spontaneous diabetic Torii (SDT) rats; experiment: Diabetic nephropathy in type II diabetic animal model; format: in vivo, rat; settings: oral once a day 16 weeks
Method: as §1
To investigate the effect of the extract of Homonoia riparia Lour. on the functions of the kidney suffering from chronic diabetes, urine was taken from the animal model 24 hours before the autopsy, with which renal indices {proteinuria, albuminuria, and glomerular filtration rate (Ccr)}, and glycation products (AGES and CML) were quantified. ELISA was performed to measure proteinuria, albuminuria, glomerular filtration rate, AGEs, CML, and podocyte (synaptopodin and WT-1). Particularly, the urine sample was mixed with coating buffer (50 mM carbonate buffer, pH 9.6) to make the final volume to be 100 μl (1:2), which was distributed in a 96-well plate. The plate stood at 37° C. for 3 hours and then washed with 0.05% PBST three times, followed by blocking with 3% skim milk. The plate stood as it was for 1 more hour and then washed. AGEs (Transgenic, JAPAN), CML (Transgenic, JAPAN), albumin, synaptopodin, and WT-1 (Santa Cruz, USA) antibodies were diluted respectively at the ratio of 1:1000, which were loaded in each well of the plate by 100 μl. The plate stood at 37° C. for 2 hours, and washed with 0.05% PBST. HRP-conjugated secondary antibody was loaded in each well of the plate by 100 μl, followed by reacting at 37° C. for 1 hour. 100 μl of the substrate, 3,3′,5,5′-tetramethylbenzidine (TMB) in 0.05% PBST was added to each well of the plate. 5 minutes later, the reaction was terminated by adding 1M H2SO4 solution (100 μl/well). Then OD was measured with an ELISA reader.
Immunological staining was performed as follows. After deparaffinization and hydration, the slide was reacted in 3% H2O2 solution for 10 minutes to deactivate endogenous peroxidase activity therein. Then, the slide was washed with PBS containing 0.05% tween 20 three times. To eliminate non-specific reaction, the slide was blocked with 5% AFB (animal free bock). The primary antibodies AGEs (Transgenic, Japan) and CML (Transgenic, Japan) were diluted (1:1000) and treated to the slide for 1 hour or overnight. After washing with PBS for 1 hour, the slide was treated with labeled streptavidin biotin (LSAB) kit (Dako, USA), followed by color development by using DAB (Dako, USA). Observation was performed under optical microscope.
The kidney was extracted from the animal model during the autopsy, which was fixed in 10% neutralized formalin for overnight. […]

[3] = extract 100 or 250 mg/kg, metformin 350 mg/kg, vs diabetic group (DM), FIG. 6

CN(C)C(=N)N=C(N)N [metformin]
blood-retinal barrier breakage (fluorescein-dextran flown out of retinal vessels, non-perfusion area) ([1]; extract 100 or 250 mg/kg (HR-100, HR-250), FIG. 2): fluorescent material was merely observed | pericyte loss, acellular capillary formation and closed vessels in retina ([1]; extract 100 or 250 mg/kg, vs diabetic group, FIG. 3): significantly decreased | glomerular hypertrophy and mesangial matrix expansion / morphological changes (PAS staining) ([2]; extract 100 or 250 mg/kg dose-dependently, metformin 350 mg/kg (not so significant), FIG. 9): decreased | AGEs and CML in urine ([2]; extract 100 or 250 mg/kg, metformin 350 mg/kg, FIG. 7): not much reduced | albuminuria [2, 3]: significantly reduced | proteinuria [2, 3]: higher | collagen deposition in glomerulus (Masson's trichrome staining) ([2]; extract 100 or 250 mg/kg, metformin 350 mg/kg, vs diabetic group (DM), FIG. 10): not much different
